Measured values from the supplement of paper PMC10307832.

Key:
Assay in all cases: relative viability (nuclei count vs DMSO), 5 days (fraction); higher = more cells survive
Wnt-C59 + Decitabine = compound: CC1=NC=CC(=C1)C2=CC=C(C=C2)CC(=O)NC3=CC=C(C=C3)C4=CN=CC=C4 [Wnt-C59] + Nc1ncn([C@H]2C[C@H](O)[C@@H](CO)O2)c(=O)n1 [Decitabine] (partner 2 µM)
How it was run: (§1)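 Relative viability is defined as nuclei in treated wells over nuclei in vehicle wells. Duplicate plates were run and medians reported. Lung cancer cell lines in 1536-well plates were dosed by pin tool one day after seeding, with one drug or with a fixed anchor-drug dose plus five library-drug doses (not always all listed) in √10 steps, and nuclei were counted after 5 days.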

Lapatinib + Pictilisib = compound: CS(=O)(=O)CCNCc1ccc(-c2ccc3ncnc(Nc4ccc(OCc5cccc(F)c5)c(Cl)c4)c3c2)o1 [Lapatinib] + CS(=O)(=O)N1CCN(Cc2cc3nc(-c4cccc5[nH]ncc45)nc(N4CCOCC4)c3s2)CC1 [Pictilisib] (partner 1 µM)
How it was run: as §1

Lapatinib + Olaparib = compound: CS(=O)(=O)CCNCc1ccc(-c2ccc3ncnc(Nc4ccc(OCc5cccc(F)c5)c(Cl)c4)c3c2)o1 [Lapatinib] + O=C(c1cc(Cc2n[nH]c(=O)c3ccccc23)ccc1F)N1CCN(C(=O)C2CC2)CC1 [Olaparib] (partner 8 µM)
How it was run: as §1

Lapatinib + Tozasertib = compound: CS(=O)(=O)CCNCc1ccc(-c2ccc3ncnc(Nc4ccc(OCc5cccc(F)c5)c(Cl)c4)c3c2)o1 [Lapatinib] + Cc1cc(Nc2cc(N3CCN(C)CC3)nc(Sc3ccc(NC(=O)C4CC4)cc3)n2)n[nH]1 [Tozasertib] (partner 0.1 µM)
How it was run: as §1

Cell Line: H3255
- relative viability (Wnt-C59 + Decitabine; first compound 0.001 µM): 0.62
- relative viability (Wnt-C59 + Decitabine; first compound 0.01 µM): 0.601
- relative viability (Wnt-C59 + Decitabine; first compound 0.03162 µM): 0.668
- relative viability (Wnt-C59 + Decitabine; first compound 0.1 µM): 0.515
- relative viability (Lapatinib + Pictilisib; first compound 0.02 µM): 0.452
- relative viability (Lapatinib + Pictilisib; first compound 0.06325 µM): 0.403
- relative viability (Lapatinib + Pictilisib; first compound 0.2 µM): 0.397
- relative viability (Lapatinib + Pictilisib; first compound 0.6325 µM): 0.284
- relative viability (Lapatinib + Pictilisib; first compound 2 µM): 0.155
- relative viability (Lapatinib + Olaparib; first compound 0.02 µM): 0.526
- relative viability (Lapatinib + Olaparib; first compound 0.06325 µM): 0.516
- relative viability (Lapatinib + Olaparib; first compound 0.2 µM): 0.634
- relative viability (Lapatinib + Olaparib; first compound 0.6325 µM): 0.469
- relative viability (Lapatinib + Olaparib; first compound 2 µM): 0.325
- relative viability (Lapatinib + Tozasertib; first compound 0.02 µM): 0.317
- relative viability (Lapatinib + Tozasertib; first compound 0.06325 µM): 0.45
- relative viability (Lapatinib + Tozasertib; first compound 0.2 µM): 0.591
- relative viability (Lapatinib + Tozasertib; first compound 0.6325 µM): 0.527
- relative viability (Lapatinib + Tozasertib; first compound 2 µM): 0.282

Cell Line: RERF-LC-KJ
- relative viability (Wnt-C59 + Decitabine; first compound 0.001 µM): 0.711
- relative viability (Wnt-C59 + Decitabine; first compound 0.01 µM): 0.727
- relative viability (Wnt-C59 + Decitabine; first compound 0.03162 µM): 0.742
- relative viability (Wnt-C59 + Decitabine; first compound 0.1 µM): 0.735
- relative viability (Lapatinib + Pictilisib; first compound 0.02 µM): 0.472
- relative viability (Lapatinib + Pictilisib; first compound 0.06325 µM): 0.907
- relative viability (Lapatinib + Pictilisib; first compound 0.2 µM): 0.595
- relative viability (Lapatinib + Pictilisib; first compound 0.6325 µM): 0.438
- relative viability (Lapatinib + Pictilisib; first compound 2 µM): 0.325
- relative viability (Lapatinib + Olaparib; first compound 0.02 µM): 0.934
- relative viability (Lapatinib + Olaparib; first compound 0.06325 µM): 0.896
- relative viability (Lapatinib + Olaparib; first compound 0.2 µM): 0.947
- relative viability (Lapatinib + Olaparib; first compound 0.6325 µM): 0.811
- relative viability (Lapatinib + Olaparib; first compound 2 µM): 0.682
- relative viability (Lapatinib + Tozasertib; first compound 0.02 µM): 0.525
- relative viability (Lapatinib + Tozasertib; first compound 0.06325 µM): 0.425
- relative viability (Lapatinib + Tozasertib; first compound 0.2 µM): 0.436
- relative viability (Lapatinib + Tozasertib; first compound 0.6325 µM): 0.413
- relative viability (Lapatinib + Tozasertib; first compound 2 µM): 0.337

Cell Line: HCC-44
- relative viability (Wnt-C59 + Decitabine; first compound 0.001 µM): 1.01
- relative viability (Wnt-C59 + Decitabine; first compound 0.01 µM): 0.963
- relative viability (Wnt-C59 + Decitabine; first compound 0.03162 µM): 0.95
- relative viability (Wnt-C59 + Decitabine; first compound 0.1 µM): 0.939
- relative viability (Lapatinib + Pictilisib; first compound 0.02 µM): 0.606
- relative viability (Lapatinib + Pictilisib; first compound 0.06325 µM): 1.03
- relative viability (Lapatinib + Pictilisib; first compound 0.2 µM): 0.66
- relative viability (Lapatinib + Pictilisib; first compound 0.6325 µM): 0.654
- relative viability (Lapatinib + Pictilisib; first compound 2 µM): 0.421
- relative viability (Lapatinib + Olaparib; first compound 0.02 µM): 0.981
- relative viability (Lapatinib + Olaparib; first compound 0.06325 µM): 1
- relative viability (Lapatinib + Olaparib; first compound 0.2 µM): 0.992
- relative viability (Lapatinib + Olaparib; first compound 0.6325 µM): 0.974
- relative viability (Lapatinib + Olaparib; first compound 2 µM): 0.867
- relative viability (Lapatinib + Tozasertib; first compound 0.06325 µM): 0.622
- relative viability (Lapatinib + Tozasertib; first compound 0.2 µM): 0.81
- relative viability (Lapatinib + Tozasertib; first compound 0.6325 µM): 0.762
- relative viability (Lapatinib + Tozasertib; first compound 2 µM): 0.725

Cell Line: SW 1573
- relative viability (Wnt-C59 + Decitabine; first compound 0.001 µM): 0.449
- relative viability (Wnt-C59 + Decitabine; first compound 0.01 µM): 0.453
- relative viability (Wnt-C59 + Decitabine; first compound 0.03162 µM): 0.583
- relative viability (Wnt-C59 + Decitabine; first compound 0.1 µM): 0.537
- relative viability (Lapatinib + Pictilisib; first compound 0.02 µM): 0.471
- relative viability (Lapatinib + Pictilisib; first compound 0.06325 µM): 0.444
- relative viability (Lapatinib + Pictilisib; first compound 0.2 µM): 0.61
- relative viability (Lapatinib + Pictilisib; first compound 0.6325 µM): 0.452
- relative viability (Lapatinib + Pictilisib; first compound 2 µM): 0.533
- relative viability (Lapatinib + Olaparib; first compound 0.02 µM): 0.401
- relative viability (Lapatinib + Olaparib; first compound 0.06325 µM): 0.443
- relative viability (Lapatinib + Olaparib; first compound 0.2 µM): 0.519
- relative viability (Lapatinib + Olaparib; first compound 0.6325 µM): 0.444
- relative viability (Lapatinib + Olaparib; first compound 2 µM): 0.522
- relative viability (Lapatinib + Tozasertib; first compound 0.02 µM): 0.121
- relative viability (Lapatinib + Tozasertib; first compound 0.06325 µM): 0.164
- relative viability (Lapatinib + Tozasertib; first compound 0.2 µM): 0.143
- relative viability (Lapatinib + Tozasertib; first compound 0.6325 µM): 0.12
- relative viability (Lapatinib + Tozasertib; first compound 2 µM): 0.159

Cell Line: NCI-H23
- relative viability (Wnt-C59 + Decitabine; first compound 0.001 µM): 0.292
- relative viability (Wnt-C59 + Decitabine; first compound 0.01 µM): 0.29
- relative viability (Wnt-C59 + Decitabine; first compound 0.03162 µM): 0.35
- relative viability (Wnt-C59 + Decitabine; first compound 0.1 µM): 0.325
- relative viability (Lapatinib + Pictilisib; first compound 0.2 µM): 0.506
- relative viability (Lapatinib + Pictilisib; first compound 0.6325 µM): 0.482
- relative viability (Lapatinib + Pictilisib; first compound 2 µM): 0.483
- relative viability (Lapatinib + Olaparib; first compound 0.2 µM): 0.266
- relative viability (Lapatinib + Olaparib; first compound 0.6325 µM): 0.296
- relative viability (Lapatinib + Olaparib; first compound 2 µM): 0.2
- relative viability (Lapatinib + Tozasertib; first compound 0.2 µM): 0.29
- relative viability (Lapatinib + Tozasertib; first compound 0.6325 µM): 0.307
- relative viability (Lapatinib + Tozasertib; first compound 2 µM): 0.218

Cell Line: HCC-15
- relative viability (Wnt-C59 + Decitabine; first compound 0.001 µM): 0.621
- relative viability (Wnt-C59 + Decitabine; first compound 0.01 µM): 0.607
- relative viability (Wnt-C59 + Decitabine; first compound 0.03162 µM): 0.661
- relative viability (Wnt-C59 + Decitabine; first compound 0.1 µM): 0.606
- relative viability (Lapatinib + Pictilisib; first compound 0.06325 µM): 0.734
- relative viability (Lapatinib + Pictilisib; first compound 0.2 µM): 0.767
- relative viability (Lapatinib + Pictilisib; first compound 0.6325 µM): 0.725
- relative viability (Lapatinib + Pictilisib; first compound 2 µM): 0.638
- relative viability (Lapatinib + Olaparib; first compound 0.06325 µM): 0.706
- relative viability (Lapatinib + Olaparib; first compound 0.2 µM): 0.689
- relative viability (Lapatinib + Olaparib; first compound 0.6325 µM): 0.659
- relative viability (Lapatinib + Olaparib; first compound 2 µM): 0.621
- relative viability (Lapatinib + Tozasertib; first compound 0.06325 µM): 0.382
- relative viability (Lapatinib + Tozasertib; first compound 0.2 µM): 0.371
- relative viability (Lapatinib + Tozasertib; first compound 0.6325 µM): 0.424
- relative viability (Lapatinib + Tozasertib; first compound 2 µM): 0.283

Cell Line: NCI-H1650
- relative viability (Wnt-C59 + Decitabine; first compound 0.001 µM): 0.494
- relative viability (Wnt-C59 + Decitabine; first compound 0.01 µM): 0.482
- relative viability (Wnt-C59 + Decitabine; first compound 0.03162 µM): 0.407
- relative viability (Wnt-C59 + Decitabine; first compound 0.1 µM): 0.408
- relative viability (Lapatinib + Pictilisib; first compound 0.02 µM): 0.253
- relative viability (Lapatinib + Pictilisib; first compound 0.06325 µM): 0.415
- relative viability (Lapatinib + Pictilisib; first compound 0.2 µM): 0.672
- relative viability (Lapatinib + Pictilisib; first compound 0.6325 µM): 0.663
- relative viability (Lapatinib + Pictilisib; first compound 2 µM): 0.503
- relative viability (Lapatinib + Olaparib; first compound 0.02 µM): 0.73
- relative viability (Lapatinib + Olaparib; first compound 0.06325 µM): 0.847
- relative viability (Lapatinib + Olaparib; first compound 0.2 µM): 0.767
- relative viability (Lapatinib + Olaparib; first compound 0.6325 µM): 0.802
- relative viability (Lapatinib + Olaparib; first compound 2 µM): 0.621
- relative viability (Lapatinib + Tozasertib; first compound 0.02 µM): 0.354
- relative viability (Lapatinib + Tozasertib; first compound 0.06325 µM): 0.325
- relative viability (Lapatinib + Tozasertib; first compound 0.2 µM): 0.399
- relative viability (Lapatinib + Tozasertib; first compound 0.6325 µM): 0.288
- relative viability (Lapatinib + Tozasertib; first compound 2 µM): 0.168

Cell Line: LU99A
- relative viability (Wnt-C59 + Decitabine; first compound 0.001 µM): 0.943
- relative viability (Wnt-C59 + Decitabine; first compound 0.01 µM): 0.937
- relative viability (Wnt-C59 + Decitabine; first compound 0.03162 µM): 0.897
- relative viability (Wnt-C59 + Decitabine; first compound 0.1 µM): 0.878
- relative viability (Lapatinib + Pictilisib; first compound 0.02 µM): 0.337
- relative viability (Lapatinib + Pictilisib; first compound 0.06325 µM): 0.26
- relative viability (Lapatinib + Pictilisib; first compound 0.2 µM): 0.345
- relative viability (Lapatinib + Pictilisib; first compound 0.6325 µM): 0.346
- relative viability (Lapatinib + Pictilisib; first compound 2 µM): 0.372
- relative viability (Lapatinib + Olaparib; first compound 0.02 µM): 0.302
- relative viability (Lapatinib + Olaparib; first compound 0.06325 µM): 0.282
- relative viability (Lapatinib + Olaparib; first compound 0.2 µM): 0.276
- relative viability (Lapatinib + Olaparib; first compound 0.6325 µM): 0.237
- relative viability (Lapatinib + Olaparib; first compound 2 µM): 0.234
- relative viability (Lapatinib + Tozasertib; first compound 0.02 µM): 0.281
- relative viability (Lapatinib + Tozasertib; first compound 0.06325 µM): 0.293
- relative viability (Lapatinib + Tozasertib; first compound 0.2 µM): 0.239
- relative viability (Lapatinib + Tozasertib; first compound 0.6325 µM): 0.195
- relative viability (Lapatinib + Tozasertib; first compound 2 µM): 0.216

Cell Line: HOP-62
- relative viability (Wnt-C59 + Decitabine; first compound 0.001 µM): 0.19
- relative viability (Wnt-C59 + Decitabine; first compound 0.01 µM): 0.238
- relative viability (Wnt-C59 + Decitabine; first compound 0.03162 µM): 0.227
- relative viability (Wnt-C59 + Decitabine; first compound 0.1 µM): 0.231
- relative viability (Lapatinib + Pictilisib; first compound 0.06325 µM): 0.66
- relative viability (Lapatinib + Pictilisib; first compound 0.2 µM): 0.76
- relative viability (Lapatinib + Pictilisib; first compound 0.6325 µM): 0.816
- relative viability (Lapatinib + Pictilisib; first compound 2 µM): 0.672
- relative viability (Lapatinib + Olaparib; first compound 0.06325 µM): 0.4
- relative viability (Lapatinib + Olaparib; first compound 0.2 µM): 0.59
- relative viability (Lapatinib + Olaparib; first compound 0.6325 µM): 0.328
- relative viability (Lapatinib + Olaparib; first compound 2 µM): 0.369
- relative viability (Lapatinib + Tozasertib; first compound 0.02 µM): 0.334
- relative viability (Lapatinib + Tozasertib; first compound 0.06325 µM): 0.343
- relative viability (Lapatinib + Tozasertib; first compound 0.2 µM): 0.377
- relative viability (Lapatinib + Tozasertib; first compound 0.6325 µM): 0.343
- relative viability (Lapatinib + Tozasertib; first compound 2 µM): 0.295
